Experimental data as given in patent US20230104936A1, “TRPML MODULATORS” (Casma Therapeutics, Inc., priority 2019, published 2023).

System: TFEB
Test: TFEB nuclear translocation assay, HeLa wt cells
Type: cell-based
Details: Homo sapiens, HeLa, 2 h, 2 hrs compound treatment, Table 1 does not say HeLa wt or TRPML1 KO
In short: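 HeLa wt, 2 hr compound, 37° C; 4% PFA fix; anti-TFEB (rabbit, 1:200, overnight 4° C) + Alexa 488 secondary, Hoechst. Imaged ×20, 4 fields/well. Readout: nuclear/ring Alexa 488 intensity ratio; AC50.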

| Structure (SMILES) | AC50 |
| --- | --- |
| CC1(C)CC2(CCN(c3ccccc3NS(=O)(=O)c3ccc4c(c3)OC(C)(C)C4)CC2)CO1 [Compound A-720, N-(2-{3,3-dimethyl-2-oxa-8-azaspiro[4.5]decan-8-yl}phenyl)-2,2-dimethyl-2,3-dihydro-1-benzofuran-6-sulfonamide] | 2.01 to 8 µM |
| COCC1(C)CCN(c2ccccc2NS(=O)(=O)c2ccc3c(c2)OC(C)(C)O3)CC1 [Compound A-721, N-{2-[4-(methoxymethyl)-4-methylpiperidin-1-yl]phenyl}-2,2-dimethyl-2H-1,3-benzodioxole-5-sulfonamide] | ≤ 2 µM |
| CN(C)S(=O)(=O)c1ccc(S(=O)(=O)Nc2ccccc2N2CCC(F)(CCO)CC2)cc1 [Compound A-722, N4-{2-[4-fluoro-4-(2-hydroxyethyl)piperidin-1-yl]phenyl}-N1,N1-dimethylbenzene-1,4-disulfonamide] | ≥ 10 µM |
| CC1(C)CC2(CCN(c3ccccc3NS(=O)(=O)c3ccc4c(c3)OC3(CCC3)O4)CC2)CO1 [Compound A-723, N-(2-{3,3-dimethyl-2-oxa-8-azaspiro[4.5]decan-8-yl}phenyl)spiro[1,3-benzodioxole-2,1′-cyclobutane]-6-sulfonamide] | ≤ 2 µM |
| CN(C)S(=O)(=O)c1ccc(S(=O)(=O)Nc2cccc(C#N)c2N2CCC3(CC2)COC(C)(C)C3)cc1 [Compound A-724, N4-(3-cyano-2-{3,3-dimethyl-2-oxa-8-azaspiro[4.5]decan-8-yl}phenyl)-N1,N1-dimethylbenzene-1,4-disulfonamide] | ≤ 2 µM |
| CN(C)S(=O)(=O)c1ccc(S(=O)(=O)Nc2ccccc2N2CCC(C(C)(C)O)CC2)cc1 [Compound A-725, N4-{2-[4-(2-hydroxypropan-2-yl)piperidin-1-yl]phenyl}-N1,N1-dimethylbenzene-1,4-disulfonamide] | 8.01 to 9.99 µM |
| CC1(C)CC2(CCN(c3ccccc3NS(=O)(=O)c3ccc4c(c3)CCOC4)CC2)CO1 [Compound A-726, N-(2-{3,3-dimethyl-2-oxa-8-azaspiro[4.5]decan-8-yl}phenyl)-3,4-dihydro-1H-2-benzopyran-6-sulfonamide] | 2.01 to 8 µM |
| COCC1(C)CCN(c2ccccc2NS(=O)(=O)c2ccc3c(c2)CCOC3)CC1 [Compound A-727, N-{2-[4-(methoxymethyl)-4-methylpiperidin-1-yl]phenyl}-3,4-dihydro-1H-2-benzopyran-6-sulfonamide] | 2.01 to 8 µM |
| CN(C)S(=O)(=O)c1ccc(S(=O)(=O)N(C)c2cc(F)ccc2N2CCC3(CC2)COC(C)(C)C3)cc1 [Compound A-728, N1-(2-{3,3-dimethyl-2-oxa-8-azaspiro[4.5]decan-8-yl}-5-fluorophenyl)-N1,N4,N4-trimethylbenzene-1,4-disulfonamide] | 2.01 to 8 µM |
| CN(C)S(=O)(=O)c1ccc(S(=O)(=O)N(C)c2ccc(F)cc2N2CCC3(CC2)COC(C)(C)C3)cc1 [Compound A-729, N1-(2-{3,3-dimethyl-2-oxa-8-azaspiro[4.5]decan-8-yl}-4-fluorophenyl)-N1,N4,N4-trimethylbenzene-1,4-disulfonamide] | 2.01 to 8 µM |
| CN(C)S(=O)(=O)c1ccc(S(=O)(=O)Nc2ccccc2N2CCC(COCC(F)F)CC2)cc1 [Compound A-730, N4-(2-{4-[(2,2-difluoroethoxy)methyl]piperidin-1-yl}phenyl)-N1,N1-dimethylbenzene-1,4-disulfonamide] | ≤ 2 µM |
| COCC1(C)CCN(c2ccccc2NS(=O)(=O)c2ccc(S(C)(=O)=O)c(F)c2)CC1 [Compound A-731, 3-fluoro-4-methanesulfonyl-N-{2-[4-(methoxymethyl)-4-methylpiperidin-1-yl]phenyl}benzene-1-sulfonamide] | ≥ 10 µM |
| O=S(=O)(Nc1ccccc1N1CCC(c2ccc(Cl)cc2F)CC1)c1ccc(C2(C(F)(F)F)N=N2)cc1 [Compound A-732, N-{2-[4-(4-chloro-2-fluorophenyl)piperidin-1-yl]phenyl}-4-[3-(trifluoromethyl)-3H-diazirin-3-yl]benzene-1-sulfonamide] | 2.01 to 8 µM |
| CN(C)S(=O)(=O)c1ccc(C(C)(C)Nc2ccccc2N2CCN(Cc3ccccc3)CC2)cc1 [Compound A-733, 4-(2-{[2-(4-benzylpiperazin-1-yl)phenyl]amino}propan-2-yl)-N,N-dimethylbenzene-1-sulfonamide] | 2.01 to 8 µM |
| COCC1(C)CC2CCC(C1)N2c1ccccc1NS(=O)(=O)c1ccc(S(=O)(=O)N(C)C)cc1 (centres unmarked) [Compound A-734, N4-{2-[3-(methoxymethyl)-3-methyl-8-azabicyclo[3.2.1]octan-8-yl]phenyl}-N1,N1-dimethylbenzene-1,4-disulfonamide] | ≤ 2 µM |
| CN(C)S(=O)(=O)c1ccc(S(=O)(=O)Nc2ccccc2N2CCC3(COC(C)(C)C3)CC2=O)cc1 (centres unmarked) [Compound A-735, N4-(2-{3,3-dimethyl-7-oxo-2-oxa-8-azaspiro[4.5]decan-8-yl}phenyl)-N1,N1-dimethylbenzene-1,4-disulfonamide] | ≥ 10 µM |

| Structure (SMILES) | AC50 |
| --- | --- |
| COCC1(C)CCN(c2ccccc2NS(=O)(=O)c2ccc(S(=O)(=O)N3CCC3)cc2)CC1 [Compound A-736, 4-(azetidine-1-sulfonyl)-N-{2-[4-(methoxymethyl)-4-methylpiperidin-1-yl]phenyl}benzene-1-sulfonamide] | ≤ 2 µM |
| CC(c1ccc(F)cc1N1CCC2(CC1)COC(C)(C)C2)S(=O)(=O)c1ccc(S(=O)(=O)N(C)C)cc1 (centres unmarked) [Compound A-737, 4-[1-(2-{3,3-dimethyl-2-oxa-8-azaspiro[4.5]decan-8-yl}-4-fluorophenyl)ethanesulfonyl]-N,N-dimethylbenzene-1-sulfonamide] | ≥ 10 µM |
| COCC1(C)CCN(c2ccccc2NS(=O)(=O)c2ccc3c(c2)OC(C)(C)C3)CC1 [Compound A-738, N-{2-[4-(methoxymethyl)-4-methylpiperidin-1-yl]phenyl}-2,2-dimethyl-2,3-dihydro-1-benzofuran-6-sulfonamide] | ≤ 2 µM |
| CN(C)S(=O)(=O)c1ccc(S(=O)(=O)Nc2ccccc2N2CCC(COC(C)(F)F)CC2)cc1 [Compound A-739, N4-(2-{4-[(1,1-difluoroethoxy)methyl]piperidin-1-yl}phenyl)-N1,N1-dimethylbenzene-1,4-disulfonamide] | ≤ 2 µM |
| COCC1(C)CCN(c2ccccc2NS(=O)(=O)c2ccc(C3(C(F)(F)F)N=N3)cc2)CC1 [Compound A-740, N-{2-[4-(methoxymethyl)-4-methylpiperidin-1-yl]phenyl}-4-[3-(trifluoromethyl)-3H-diazirin-3-yl]benzene-1-sulfonamide] | 8.01 to 9.99 µM |
| COC(C)C1(C)CCN(c2ccccc2NS(=O)(=O)c2ccc(S(=O)(=O)N(C)C)cc2)CC1 (centres unmarked) [Compound A-741, N4-{2-[4-(1-methoxyethyl)-4-methylpiperidin-1-yl]phenyl}-N1,N1-dimethylbenzene-1,4-disulfonamide] | ≤ 2 µM |
| CC1(C)CC2(CCN(c3ccccc3NS(=O)(=O)c3ccc4c(c3)C(C)(C)CO4)CC2)CO1 [Compound A-742, N-(2-{3,3-dimethyl-2-oxa-8-azaspiro[4.5]decan-8-yl}phenyl)-3,3-dimethyl-2,3-dihydro-1-benzofuran-5-sulfonamide] | ≤ 2 µM |
| CC1(C)CC2(CCN(c3ccccc3NS(=O)(=O)CCc3ccccc3)CC2)CO1 [Compound A-743, N-(2-{3,3-dimethyl-2-oxa-8-azaspiro[4.5]decan-8-yl}phenyl)-2-phenylethane-1-sulfonamide] | ≥ 10 µM |
| COCC1(C)CCN(c2ccccc2NS(=O)(=O)Cc2cccc(S(=O)(=O)COC)c2)CC1 [Compound A-744, 1-(3-methoxymethanesulfonylphenyl)-N-{2-[4-(methoxymethyl)-4-methylpiperidin-1-yl]phenyl}methanesulfonamide] | ≥ 10 µM |
| COCC1(C)CCN(c2ccccc2NS(=O)(=O)c2ccc(S(=O)(=O)N(C)C)cc2)C(C)C1 (centres unmarked) [Compound A-745, N4-{2-[4-(methoxymethyl)-2,4-dimethylpiperidin-1-yl]phenyl}-N1,N1-dimethylbenzene-1,4-disulfonamide] | ≥ 10 µM |
| COCC1(C)CCN(c2c(NS(=O)(=O)c3ccc(S(=O)(=O)N(C)C)cc3)ccc3c2cnn3C)CC1 [Compound A-746, N4-{4-[4-(methoxymethyl)-4-methylpiperidin-1-yl]-1-methyl-1H-indazol-5-yl}-N1,N1-dimethylbenzene-1,4-disulfonamide] | ≤ 2 µM |
| COCC1(C)CCN(c2ccccc2NS(=O)(=O)Cc2ccc(S(=O)(=O)COC)cc2)CC1 [Compound A-747, 1-(4-methoxymethanesulfonylphenyl)-N-{2-[4-(methoxymethyl)-4-methylpiperidin-1-yl]phenyl}methanesulfonamide] | ≥ 10 µM |
| CC(C1CCN(c2c(F)cccc2NS(=O)(=O)c2ccc(S(=O)(=O)N(C)C)cc2)CC1)N1C[C@@H](C)O[C@@H](C)C1 (stereo partly drawn) [Compound A-748, N4-[2-(4-{1-[(2R,6S)-2,6-dimethylmorpholin-4-yl]ethyl}piperidin-1-yl)-3-fluorophenyl]-N1,N1-dimethylbenzene-1,4-disulfonamide] | ≤ 2 µM |
| O=S(=O)(Nc1cccc(Cl)c1N1CCCCC1)c1ccc(C2(C(F)(F)F)N=N2)cc1 [Compound A-749, N-[3-chloro-2-(piperidin-1-yl)phenyl]-4-[3-(trifluoromethyl)-3H-diazirin-3-yl]benzene-1-sulfonamide] | 2.01 to 8 µM |
| CC(c1cccc(F)c1N1CCC(CN2C[C@@H](C)O[C@@H](C)C2)CC1)S(=O)(=O)c1ccc(S(=O)(=O)N(C)C)cc1 (stereo partly drawn) [Compound A-750, 4-{1-[2-(4-{[(2R,6S)-2,6-dimethylmorpholin-4-yl]methyl}piperidin-1-yl)-3-fluorophenyl]ethanesulfonyl}-N,N-dimethylbenzene-1-sulfonamide] | ≤ 2 µM |
| CC(c1ccccc1N1CCC2(CC1)COC(C)(C)C2)S(=O)(=O)Cc1ccccc1 (centres unmarked) [Compound A-751, 3,3-dimethyl-8-[2-(1-phenylmethanesulfonylethyl)phenyl]-2-oxa-8-azaspiro[4.5]decane] | ≥ 10 µM |
